Data as given in US5369096A, “Glycolipid derivatives” (The Nisshin Oil Mills, Ltd., priority 1992, dated 1994).

Experiments:
Type in all cases: cell-based
[1] = system: HL-60 cells adhering to vascular endothelial cells of the normal human umbilical cord; test: inhibition of adhesion of HL-60 cells to rhIL1β-stimulated vascular endothelial cells, liposome dispersion; conditions: 20 μg/ml equivalent; for Amount of HL-60 cancer cells adhered (fluorescence intensity): rhIL1β 200 U/ml, 485 nm/535 nm
Description: (§1) A solution of 200 μg of phosphatidylcholine, 100 μg of cholesterol, 7.5 μg of dicetyl phosphate and 50 μg of a compound of the invention in a mixture of chloroform/methanol=2/1 (ca. 1 ml) was evaporated under reduced pressure to dryness followed by addition of 0.25 ml of a phosphate-buffered saline solution. The mixture was ultrasonicated (an output of 90 watts) for 5 min. and stirred (a vortex mixer) for 5 min. to form a liposome dispersion.
(§2) Vascular endothelial cells of the normal human umbilical cord grown to confluence were stimulated in 24-well plates with 200 U/ml of recombinant interleukin 1β (called hereafter rhIL1β, manufactured by Genzyme) at 37° C. for 4 hours. After removal of the supernatant by suction, liposome dispersions each prepared from a compound of the invention in an amount of 20 μg/ml equivalent were added except for the rhIL1β-untreated group (sample 1) and the treated groups (samples 2 and 3). The mixtures were then allowed to react at room temperature for 30 min. Subsequently, promyelocytic leukemia cell line HL-60 with 2',7'-bis(carboxyethyl)-5,6-carboxyfluorescene acetoxymethyl ester fluorescent dye enclosed was added at a level of 1×10^6 cells per well followed by centrifugal operation at 100 rpm for 20 min. Each well was washed three times followed by addition of 0.5 ml of 0.5% Triton X-100 and stirring. The contents were divided into 100 μl portions in 96-well plates and measurement was made on a Baxter fluorometer at 485 nm/535 nm.
4: rhIL1β-treated group+compound 5A-containing liposome dispersion-treated group (2EG)*
5: rhIL1β-treated group+compound 5B-containing liposome dispersion-treated group (3EG)*
6: rhIL1β-treated group+compound 5C-containing liposome dispersion-treated group (4EG)*
7: rhIL1β-treated group+compound 5D-containing liposome dispersion-treated group (5EG)*
* 2EG, 3EG, 4EG or 5EG represents a compound of the invention containing 2, 3, 4 or 5 CH2 CH2 O units, respectively. The same shall apply hereinafter.
(§3) % Inhibition of adhesion=100-[(fluorescence intensity for rhIL1β-treated group+compound-free or a compound-containing liposome dispersion-treated group)-(fluorescence intensity for rhIL1β-untreated group)/(fluorescence intensity for rhIL1β-treated group-fluorescence intensity for rhIL1β-untreatedgroup)]×100

[2] = system: human normal lymphocytes adhering to vascular endothelial cells of the normal human umbilical cord; test: inhibition of adhesion of human normal lymphocytes to rhIL1β-stimulated vascular endothelial cells, liposome dispersion; conditions: 20 μg/ml equivalent; for Amount of human normal lymphocytes adhered (fluorescence intensity): rhIL1β 200 U/ml, 485 nm/535 nm
Description: as §1
as §2, with “of rhIL1β” for “of recombinant interleukin 1β (called hereafter rhIL1β, manufactured by Genzyme)”, “Subsequently, human normal lymphocytes” for “Subsequently, promyelocytic leukemia cell line HL-60”, “with 2',7'-bis-(carboxyethyl)-5,6-carboxyfluorescene” for “with 2',7'-bis(carboxyethyl)-5,6-carboxyfluorescene”, “of 2×10^6” for “of 1×10^6”, “Each hole” for “Each well”
4: rhIL1β-treated group+compound 5A-containing liposome dispersion-treated group (2EG)
5: rhIL1β-treated group+compound 5B-containing liposome dispersion-treated group (3EG)
6: rhIL1β-treated group+compound 5C-containing liposome dispersion-treated group (4EG)
7: rhIL1β-treated group+compound 5D-containing liposome dispersion-treated group (5EG)
Amount adhered and % inhibition of adhesion of human normal lymphocytes as measured from fluorescence intensity are shown in Table 4 below.

[3] = system: HL-60 cancer cells adhering to vascular endothelial cells of the normal human umbilical cord; test: inhibition of adhesion of HL-60 cancer cells to rhIL1β-stimulated vascular endothelial cells, oily emulsion; conditions: 20 μg/ml equivalent; for Amount of HL-60 cancer cells adhered (fluorescence intensity): rhIL1β 200 U/ml, 485 nm/535 nm
Description: A mixed solution of 6 mg of egg yolk lecithin (manufactured by Nacalaitesque Inc.), 30 μl of soybean oil J. P. (manufactured by Yoshida Seiyaku), 470 μl of distilled water for injection (manufacturedby Otsuka Seiyaku) and 125 μg of a compound of the invention was ultrasonicated (an output of 90 watts) for 10 min. to prepare an oily emulsion. The oily emulsion was further passed through a polycarbonate membrane filter having 0.2 μm average pore diameter (manufactured by Millipore) to provide an average particle size of 0.2 μm.
as §2, with “rhIL1β” for “recombinant interleukin 1β (called hereafter rhIL1β, manufactured by Genzyme)”, “oily emulsions” for “liposome dispersions”
4: rhIL1β-treated group+2→3 sialyl Lewis X (natural type)-containing oily emulsion dispersion-treated group
5: rhlL1β-treated group+compound 5E-containing oily emulsion dispersion-treated group (OEG)
6: rhIL1β-treated group+compound 5A-containing oily emulsion dispersion-treated group (2EG)
7: rhIL1β-treated group+compound 5B-containing oily emulsion dispersion-treated group (3EG)
8: rhIL1β-treated group+compound 5C-containing oily emulsion dispersion-treated group (4EG)
9: rhIL1β-treated group+compound 5D-containing oily emulsion dispersion-treated group (5EG)
as §3, with “inhibition” for “Inhibition”, “oily emulsion” for “liposome”

Row | Compound | Amount of HL-60 cancer cells adhered (fluorescence intensity) [1] | Amount of human normal lymphocytes adhered (fluorescence intensity) [2] | Amount of HL-60 cancer cells adhered (fluorescence intensity) [3] | % Inhibition of adhesion ([1]; HL-60 cells) | % Inhibition of adhesion ([2]; human normal lymphocytes) | % Inhibition of adhesion ([3]; HL-60 cells)
1 | CCCCCCCCCCCCCCC(CCCCCCCCCCCCCC)C(=O)Nc1ccc(COCCOCCOCCOCCOCCO[C@@H]2O[C@H](CO)[C@@H](O[C@@H]3O[C@H](CO)[C@H](O)[C@H](O[C@]4(C(=O)O)C[C@H](O)[C@@H](NC(C)=O)[C@H]([C@H](O)[C@H](O)CO)O4)[C@H]3O)[C@H](O[C@@H]3O[C@@H](C)[C@@H](O)[C@@H](O)[C@@H]3O)[C@H]2O)cc1 [Compound 5D, O-(5-acetamido-3,5-dideoxy-D-glycero-α-D-galacto-2-nonulopyranosylonic acid)-(2→3)-O-β-D-galactopyranosyl-(1→4)-[O-α-L-fucopyranosyl-(1→3)-O-β-D-glucopyranosyl]-(1→1)-5-O-para-(2-tetradecylhexadecanoyl)aminobenzyl-3,6,9,12-tetraoxatetradecane-1,14-diol] | 17405 | 8817 | 2782 |  |  | 
2 | CCCCCCCCCCCCCCC(CCCCCCCCCCCCCC)C(=O)Nc1ccc(COCCOCCOCCO[C@@H]2O[C@H](CO)[C@@H](O[C@@H]3O[C@H](CO)[C@H](O)[C@H](O[C@]4(C(=O)O)C[C@H](O)[C@@H](NC(C)=O)[C@H]([C@H](O)[C@H](O)CO)O4)[C@H]3O)[C@H](O[C@@H]3O[C@@H](C)[C@@H](O)[C@@H](O)[C@@H]3O)[C@H]2O)cc1 [Compound 5B, O-(5-acetamido-3,5-dideoxy-D-glycero-α-D-galacto-2-nonulopyranosylonic acid)-(2→3)-O-β-D-galactopyranosyl-(1→4)-[O-α-L-fucopyranosyl-(1→3)-O-β-D-glucopyranosyl]-(1→1)-8-O-para-(2-tetradecylhexadecanoyl)aminobenzyl-3,6-dioxaoctane-1,8-diol] | 17957 | 6993 | 6439 |  |  | 
3 | CCCCCCCCCCCCCCC(CCCCCCCCCCCCCC)C(=O)Nc1ccc(COCCOCCO[C@@H]2O[C@H](CO)[C@@H](O[C@@H]3O[C@H](CO)[C@H](O)[C@H](O[C@]4(C(=O)O)C[C@H](O)[C@@H](NC(C)=O)[C@H]([C@H](O)[C@H](O)CO)O4)[C@H]3O)[C@H](O[C@@H]3O[C@@H](C)[C@@H](O)[C@@H](O)[C@@H]3O)[C@H]2O)cc1 [Compound 5A, O-(5-acetamido-3,5-dideoxy-D-glycero-α-D-galacto-2-nonulopyranosylonic acid)-(2→3)-O-β-D-galactopyranosyl-(1→4)-[O-α-L-fucopyranosyl-(1→3)-O-β-D-glucopyranosyl]-(1→1)-5-O-para-(2-tetradecylhexadecanoyl)aminobenzyl-3-oxapentane-1,5-diol] | 22769 | 6882 | 13287 | 80.04% | 61.9% | 65.3%
4 | CCCCCCCCCCCCCCC(CCCCCCCCCCCCCC)C(=O)Nc1ccc(COCCOCCOCCOCCO[C@@H]2O[C@H](CO)[C@@H](O[C@@H]3O[C@H](CO)[C@H](O)[C@H](O[C@]4(C(=O)O)C[C@H](O)[C@@H](NC(C)=O)[C@H]([C@H](O)[C@H](O)CO)O4)[C@H]3O)[C@H](O[C@@H]3O[C@@H](C)[C@@H](O)[C@@H](O)[C@@H]3O)[C@H]2O)cc1 [Compound 5C, O-(5-acetamido-3,5-dideoxy-D-glycero-α-D-galacto-2-nonulopyranosylonic acid)-(2→3)-O-β-D-galactopyranosyl-(1→4)-[O-α-L-fucopyranosyl-(1→3)-O-β-D-glucopyranosyl]-(1→1)-11-O-para-(2-tetradecylhexadecanoyl)aminobenzyl-3,6,9-trioxaundecane-1,11-diol] | 26907 | 10513 | 6762 |  |  | 
